Reference: patent publication US9480688B2, “Pheromone compositions and their use to modify behavior in different vertebrate species” (priority 2011, dated 2016)

What was measured:
[1] = system: anxious dogs; assay: Heart rate of anxious dogs after Androstenone spray (telemetry); type: in vivo, dog; conditions: four anxious dogs, 10 minutes following spray with about 0.1 μg/mL Androstenone in isopropyl alcohol
Procedure: A study was conducted to determine whether dogs' heart rate increased following application with an aerosol spray containing Androstenone.
An aerosol spray was prepared which contained about 0.1 μg/mL of Androstenone and isopropyl alcohol using the formulation provided in Example 1.
Four dogs determined to be “anxious” were fit with telemetry jackets and transmitters in order to continually monitor heart rate. Dot heart rates were measured for 10 minutes before treatment, 10 minutes following treatment with a control spray (isopropyl alcohol only), and 10 minutes following treatment with the test spray containing Androstenone and isopropyl alcohol.

[2] = system: head shy horses; assay: Aerosol spray test on head shy horses, scored 1 through 5; type: in vivo, horse; conditions: for Did not work / Partially worked / Worked well: % of horses
Procedure: The spray solution was placed in a pressurized metal aerosol can. In one group of aerosol cans, a noise making device was also added to the aerosol can. The propellant, when forced through small holes upon pressing the nozzle, caused a sound that exceeded 70 decibels. In a second group of aerosol cans, the noise making device was not added to the can, such that when the spray composition was pumped, no noise was made.
The efficacy of an aerosol spray composition containing Androstenone was tested using thirteen adult horses, all of which were enrolled in this study after being evaluated and categorized as head shy and hard to handle (i.e., observed to move their heads away from the handler when the handler attempted to touch their heads with his hand or a halter).
The thirteen horses were sorted into two treatment groups. One group (Group 1) of 10 horses received the Androstenone spray composition outlined in Table 4 and control (CON isopropyl alcohol) with noise (n=10), while the second group (Group 2) received the Androstenone spray and control without noise (n=3).
In each group, the control composition was administered to the horses first and then the Androstenone spray was administered to the horses the following day immediately before the handler attempted to touch their ears and heads. The horses' behavior was then recorded and evaluated after each administration. The horses were given a numerical score of 1 through 5.

[3] = system: barking/jumping dogs; assay: Aerosol spray test on barking/jumping dogs in a kennel; type: in vivo, dog; conditions: for % Effective (no barking/jumping within 1 minute): 6 dogs
Procedure: An aerosol spray composition comprising Androstenone solution was prepared in accordance with Example 1, but was then diluted in isopropyl alcohol to obtain a 1:1,000 dilution of the original concentration. The purpose of the dilution was to mask the odor of the Androstenone, which can be smelled by humans at high concentrations. The spray solution was placed in a metal aerosol can pressurized with propane. A noise making device was also added to the aerosol can. The propellant, when forced through small holes, caused a sound that exceeded 70 decibels.
The efficacy of an aerosol spray composition containing Androstenone was tested in a commercial research facility housing a large number of dogs. A designated person walked the aisles of the kennel with a calm dog on a leash in order to identify those dogs that met the criteria of barking/jumping. The calm dog on the leash was walked in the center aisle between kennels and also sat outside the kennels. To qualify as a test subject, a dog had to repeatedly jump and bark while the calm dot and the person were in the aisle. A total of 15 dogs were chosen as test subjects.
The dogs were separated into two treatment groups. […] The dogs in treatment group #2 were treated, when observed to be engaging in barking/jumping behavior, with a loud spray canister to which the diluted spray composition containing Androstenone had been added. The test period was for 1 minute.

[4] = system: weaning foals; assay: Ointment test on weaning foals, behavioral observations; type: in vivo, horse; parameters: increase of vocalizations compared to control treatment: concentration or dose not given beside the values
Procedure: A total of 20 foals divided into two groups (Group A, n=10; Group B, n=10) were weaned in pens of similar size and at the same time of the day (9 am), and were evaluated using a control and pheromone compositions. All horses were between 5 and 6 months of age and mixed breeds, primarily quarter horses. An ointment form of the composition comprising Androstenone was prepared in accordance with Table 7 for administering to the horses in this study.
An ointment composition containing a different pheromone, 2-methylbut-2-enal (RP, 1 mg/mL), was also prepared for administration in a comparison study. An ointment containing no pheromone was prepared and used as control (CON). In group A, 5 foals were used for the control treatment, 3 foals were used for the RP treatment, and 2 foals were used for the Androstenone treatment. In group B, 3 foals were used for the control treatment, 3 foals were used for the RP treatment, and 4 foals were used for the Androstenone treatment. As such, a total of 8 foals were used for the control treatment, 6 foals were used for the RP treatment, and 6 foals were used for the Androstenone treatment in this entire study. Both of the pheromone formulations and the control were applied to each nostril. Control treatments were administered first to prevent any cross contamination to horses during day two.
Behavioral observations were taken during the first 10 minutes (Group A and Group B) and then for four hours (Group B only) after the mares were separated from their foals. Foal behavior was recorded every minute during the first hour (or 10 minutes) and every 5 minutes for the remaining 3 hours of the study for Group B.
Behaviors were not mutually exclusive.
The number of shocks received by the electric fence (as foals tried to return to their mare) and vocalizations were recorded continuously. The total number of observations of each defined behaviors over the first 4 hours in Group B is presented in Table 9, which also provides the percentage of each behavior over the total number of recorded number of behaviors.

[5] = system: younger pigs; conditions: cited from earlier work
[6] = Group 1, spray with noise, n=10
[7] = Group 1, spray with noise, n=10, listed as Pheromone
[8] = Group 2, no noise, n=3, listed as Pheromone
[9] = Group B, first 4 hours after weaning
[10] = Group B, first 4 hours after weaning, ointment in each nostril
[11] = first 10 minutes post weaning (n = 20)
[12] = first 10 minutes post weaning, Group A and Group B (n = 20)

SMILES: C[C@]12CCC(=O)C[C@@H]1CC[C@@H]1[C@@H]2CC[C@]2(C)C=CC[C@@H]12 [Androstenone, 5-α-androst-16-en-3-one]
- effect on heart rate [1]: no significant effect
- horses showing improvement, either fully or partially, in head shy behavior [2, 6]: 80%
- Did not work [2, 6]: 20%
- Partially worked [2, 6]: 20%
- Worked well [2, 6]: 60%
- Did not work [2, 7]: 20%
- Partially worked [2, 7]: 20%
- Worked well [2, 7]: 60%
- Avg. Score ([2]; Group 1, spray with noise, n=10, score 1 (little to no effect) to 5 (easier to handle)): 3.9
- horses showing improvement, either fully or partially, in head shy behavior ([2]; Group 2, no noise, n=3): 100%
- Did not work ([2]; Group 2, no noise, n=3): 0%
- Partially worked ([2]; Group 2, no noise, n=3): 33%
- Worked well ([2]; Group 2, no noise, n=3): 66%
- Partially worked [2, 8]: 33%
- Worked well [2, 8]: 67%
- Avg. Score ([2]; Group 2, spray with no noise, n=3, score 1 to 5): 3.9
- % Effective (no barking/jumping within 1 minute) ([3]; Group 2: loud spray plus Androstenone, aerosol diluted 1:1,000 in isopropyl alcohol, applied in facial/snout region): 100%
- % Effective (no barking/jumping within 1 minute) ([3]; Group 3: placebo first, then Androstenone spray (re-spray of dogs not responding to placebo)): 83.5%
- % Effective (no barking/jumping within 1 minute), overall Androstenone efficacy ([3]; all dogs that received the Androstenone spray (11 of 12 responded)): 91.7%
- observed effect on barking/jumping ([3]; diluted Androstenone spray, dogs): immediate cessation of barking/jumping
- time barking/jumping stopped before barking resumed ([3]; the one dog that did not respond by the 60 second criterion, after Androstenone spray): 40 s
- reduction of head shaking compared to control ointment ([4]; 4 hour period after weaning): 100%
- reduction of pacing compared to control ointment ([4]; 4 hour period after weaning): 100%
- reduction of trotting/running compared to control ointment ([4]; 4 hour period after weaning): 100%
- increase of feeding behavior compared to control ([4]; 4 hour period after weaning, % of observations eating hay): 98%
- Percent of observations: defecation [4, 9]: 0.0%
- Percent of observations: drink [4, 9]: 0.0%
- Percent of observations: feeding [4, 9]: 11.3%
- Percent of observations: fight [4, 9]: 0.0%
- Percent of observations: head shake [4, 9]: 0.0%
- Percent of observations: interact [4, 9]: 0.8%
- Percent of observations: lying [4, 9]: 0.0%
- Percent of observations: pace [4, 9]: 0.0%
- Percent of observations: paw [4, 9]: 0.0%
- Percent of observations: shock [4, 9]: 0.8%
- Percent of observations: stand [4, 9]: 58.8%
- Percent of observations: trot [4, 9]: 0%
- Percent of observations: vocal [4, 9]: 19.0%
- Percent of observations: walk [4, 9]: 9.2%
- Total observations: defecation [4, 10]: 0
- Total observations: drink [4, 10]: 0
- Total observations: feeding [4, 10]: 27
- Total observations: fight [4, 10]: 0
- Total observations: head shake [4, 10]: 0
- Total observations: interact [4, 10]: 2
- Total observations: lying [4, 10]: 0
- Total observations: pace [4, 10]: 0
- Total observations: paw [4, 10]: 0
- Total observations: shock [4, 10]: 2
- Total observations: stand [4, 10]: 141
- Total observations: trot [4, 10]: 0
- Total observations: vocal [4, 10]: 46
- Total observations: walk [4, 10]: 22
- Percent of observations: trot ([4]; Group B, first 4 hours after weaning, listed as Pheromone A): 0.0%
- Percent of observations: defecation [4, 11]: 0.0%
- Percent of observations: drink [4, 11]: 0.0%
- Percent of observations: eat [4, 11]: 0.0%
- Percent of observations: fight [4, 11]: 0.0%
- Percent of observations: head shake [4, 11]: 0.0%
- Percent of observations: interact [4, 11]: 0.0%
- Percent of observations: lying [4, 11]: 0.0%
- Percent of observations: pace [4, 11]: 0.0%
- Percent of observations: paw [4, 11]: 0.0%
- Percent of observations: shock [4, 11]: 0.0%
- Percent of observations: stand [4, 11]: 81.8%
- Percent of observations: trot [4, 11]: 0.0%
- Percent of observations: vocal [4, 11]: 37.1%
- Percent of observations: walk [4, 11]: 18.2%
- Total observations: defecation [4, 12]: 0
- Total observations: drink [4, 12]: 0
- Total observations: eat [4, 12]: 0
- Total observations: fight [4, 12]: 0
- Total observations: head shake [4, 12]: 0
- Total observations: interact [4, 12]: 0
- Total observations: lying [4, 12]: 0
- Total observations: pace [4, 12]: 0
- Total observations: paw [4, 12]: 0
- Total observations: shock [4, 12]: 0
- Total observations: stand [4, 12]: 18
- Total observations: trot [4, 12]: 0
- Total observations: vocal [4, 12]: 13
- Total observations: walk [4, 12]: 4
- effect on aggressive behavior [5]: reduces aggressive behavior

SMILES: CC=C(C)C=O [RP, 2-methylbut-2-enal, reference compound]
- increase of vocalizations compared to control treatment ([4]; 4 hour period after weaning): 372%
- effect on feeding (eating hay) ([4]; 4 hour period after weaning, compared to control): decreased
- Percent of observations: defecation [4, 9]: 0.3%
- Percent of observations: drink [4, 9]: 0.3%
- Percent of observations: feeding [4, 9]: 2.9%
- Percent of observations: fight [4, 9]: 0.0%
- Percent of observations: head shake [4, 9]: 0.1%
- Percent of observations: interact [4, 9]: 0.0%
- Percent of observations: lying [4, 9]: 0.0%
- Percent of observations: pace [4, 9]: 1.4%
- Percent of observations: paw [4, 9]: 0.0%
- Percent of observations: shock [4, 9]: 1.0%
- Percent of observations: stand [4, 9]: 30.8%
- Percent of observations: trot [4, 9]: 3.1%
- Percent of observations: vocal [4, 9]: 58.6%
- Percent of observations: walk [4, 9]: 1.4%
- Total observations: defecation [4, 10]: 2
- Total observations: drink [4, 10]: 2
- Total observations: feeding [4, 10]: 21
- Total observations: fight [4, 10]: 0
- Total observations: head shake [4, 10]: 1
- Total observations: interact [4, 10]: 0
- Total observations: lying [4, 10]: 0
- Total observations: pace [4, 10]: 10
- Total observations: paw [4, 10]: 0
- Total observations: shock [4, 10]: 7
- Total observations: stand [4, 10]: 220
- Total observations: trot [4, 10]: 22
- Total observations: vocal [4, 10]: 422
- Total observations: walk [4, 10]: 10
- increase of vocalizations over controls ([4]; first 10 minutes after weaning): 42 fold
- Percent of observations: defecation [4, 11]: 0.0%
- Percent of observations: drink [4, 11]: 0.0%
- Percent of observations: eat [4, 11]: 0.0%
- Percent of observations: fight [4, 11]: 0.0%
- Percent of observations: head shake [4, 11]: 0.0%
- Percent of observations: interact [4, 11]: 0.0%
- Percent of observations: lying [4, 11]: 0.0%
- Percent of observations: pace [4, 11]: 6.1%
- Percent of observations: paw [4, 11]: 0.0%
- Percent of observations: shock [4, 11]: 3.3%
- Percent of observations: stand [4, 11]: 24.2%
- Percent of observations: trot [4, 11]: 66.7%
- Percent of observations: vocal [4, 11]: 69.7%
- Percent of observations: walk [4, 11]: 3.0%
- Total observations: defecation [4, 12]: 0
- Total observations: drink [4, 12]: 0
- Total observations: eat [4, 12]: 0
- Total observations: fight [4, 12]: 0
- Total observations: head shake [4, 12]: 0
- Total observations: interact [4, 12]: 0
- Total observations: lying [4, 12]: 0
- Total observations: pace [4, 12]: 2
- Total observations: paw [4, 12]: 0
- Total observations: shock [4, 12]: 4
- Total observations: stand [4, 12]: 8
- Total observations: trot [4, 12]: 22
- Total observations: vocal [4, 12]: 85
- Total observations: walk [4, 12]: 1
